Test [1] concerns iNKT. As to the kind of experiment: Immunomodulatory activity in mouse hepatic mononuclear cells containing iNKT cells assessed as IFNgamma release after 72 hrs by ELISA. Format: functional, cell-based.
Test [2] deals with iNKT. As to the kind of experiment: Immunomodulatory activity in mouse hepatic mononuclear cells containing iNKT cells assessed as IL4 release after 72 hrs by ELISA. Type of test: functional, cell-based.
The subject of a further test is Mus musculus. As to the kind of experiment: Immunomodulatory activity in C57BL/6 mouse serum assessed as IL4 release at 2 ug/ml, iv after 2 to 16 hrs by ELISa. Format: functional, organism-based.
Test [3] concerns iNKT. Description: Immunomodulatory activity in mouse hepatic mononuclear cells containing iNKT cells assessed as IL4 release at 25 nM after 72 hrs by ELISA. Type of test: functional, cell-based. In general terms: In an ELISA, binding on a coated surface is turned into a signal by an enzyme label.
In test [4] the test system is iNKT. As to the kind of experiment: Immunomodulatory activity in mouse hepatic mononuclear cells containing iNKT cells assessed as IFNgamma release at 25 nM after 72 hrs by ELISA. Format: functional, cell-based.

Each structure is given as a SMILES string. Calls of active or inactive are those of the source. The calls are words filed in the database; no cut-off is given here.

As for `CCCCCCCCCCCCCCCCCCCCCCCCCC(=O)N[C@@H](CO[C@H]1O[C@H](CO)[C@H](O)[C@H](O)[C@H]1O)[C@H](O)[C@H](O)c1cnn(Cc2ccc(CCCCCC)cc2)c1`, the Activity result in the test with iNKT [1] and in the test on iNKT [2] was “Dose-dependent effect” in each case. For the same compound, the result in the test on Mus musculus was Active.
For `CCCCCCCCCCCCCCCCCCCCCCCCCC(=O)N[C@@H](CO[C@H]1O[C@H](CO)[C@H](O)[C@H](O)[C@H]1O)[C@H](O)[C@H](O)CCCCCCCCCCCCCC`, the outcome in the test with iNKT [3] and in the test on iNKT [4] was Active.

Source of the values: ChEMBL document CHEMBL2057066, “Heteroaromatic Moieties in the Sphingosine Backbone of α-Galactosylceramides for Noncovalent Interactions with CD1d” (ACS Med Chem Lett, 2012).
